Measured values taken from patent publication US20250289812A1, “COMPOUND FOR TREATING THROMBOTIC DISEASES” (SHANGHAI INSTITUTE OF MATERIA MEDICA, CHINESE ACADEMY OF …, priority 2020, published 2025).

Experiments:
[1] = test system: platelets on solid phase fibrinogen; assay: Effect of compound on platelet stretching on solid phase fibrinogen; type: cell-based; conditions: 1 h, washed platelets, incubated 60 min at 37° C., read-out: Concentration range for compounds that inhibit platelet stretching on fibrinogen
Description: 1. Experimental method: Firstly, 50 μl fibrinogen (0.1M, diluted with pH 8.3 sodium bicarbonate, 20 μg/ml) was added to 96-well plate, and coated overnight at 4° C. After being washed by PBS for 3 times in the morning, sealed with bovine serum albumin (20 mg/ml) at 37° C. for 60 min, then 100 μl of washed platelet suspension was taken, and added into compounds in each group to make the final concentration 250 μM, and incubated at 37° C. for 60 min. 50 μl of incubated platelets were added to 96-well plate, adhered in a temperature box at 37° C. for 60 min, unadhered platelets were removed by PBS washing for 3 times, and adhered platelets were stably fixed with 4% paraformaldehyde, and washed with PBS for 3 times. Then the platelet membrane was perforated with 0.5% Triton X-100, and then the platelet was stained with 0.5 μg/ml phalloidin-rhodamine for 60 min at 37° C. and washed 3 times (10 min each) with PBS.
2. Experimental results and conclusions: The concentration of different compounds on platelet stretching on fibrinogen was shown in Table 3, and the inhibitory effect of some compounds on platelet stretching was shown in FIG. 2.

[2] = target: Src kinase SH3 domain protein (Homo sapiens (Human), UniProt P12931); assay: Surface plasmon resonance (SPR) determination of dissociation constants with SH3 protein; type: binding; conditions: SH3 protein coupled to CM5 chip
Src kinase SH3 domain protein, sequence (P12931 whole entry, looked up, the tested form may be a part): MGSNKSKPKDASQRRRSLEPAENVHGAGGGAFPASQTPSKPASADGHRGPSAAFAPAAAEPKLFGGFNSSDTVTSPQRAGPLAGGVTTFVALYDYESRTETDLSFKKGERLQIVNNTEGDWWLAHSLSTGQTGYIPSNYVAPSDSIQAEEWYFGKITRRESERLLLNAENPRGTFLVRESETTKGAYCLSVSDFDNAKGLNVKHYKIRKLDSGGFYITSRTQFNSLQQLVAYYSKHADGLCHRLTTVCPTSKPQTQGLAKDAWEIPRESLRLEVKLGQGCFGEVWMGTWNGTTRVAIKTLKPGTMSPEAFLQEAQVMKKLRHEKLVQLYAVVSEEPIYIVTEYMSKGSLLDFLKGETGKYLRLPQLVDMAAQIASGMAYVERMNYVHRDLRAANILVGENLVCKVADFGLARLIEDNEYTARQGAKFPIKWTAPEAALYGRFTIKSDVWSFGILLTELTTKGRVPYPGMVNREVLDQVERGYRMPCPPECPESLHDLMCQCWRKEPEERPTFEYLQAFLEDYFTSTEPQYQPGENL
Description: 1. Experimental method: Surface plasmon resonance test was carried out on BIACORE T200 instrument (GE Company). Fresh purified grade Src kinase SH3 domain protein (concentration 2 mg/ml) was diluted to 0.1 mg/ml with 10 mM CH3COONa (pH 4.2) and then SH3 protein was coupled to the CM5 chip by standard amino coupling methods. The compounds of the invention were diluted in a gradient using a buffer solution (20 mM Tris-HCl, PH 8.0, 100 mM NaCl) for 60 seconds and dissociated for 120 seconds at a flow rate of […], respectively. The changes in response values over time were recorded and analyzed by the BIA Evaluation Software (GE Healthcare) program to obtain the dissociation constants KD for the different compounds with SH3 protein.
2. Experimental results and conclusions: The dissociation constants KD of different compounds and SH3 protein were described in Table 2, and the surface plasmon resonance (SPR) experimental results of some compounds were shown in FIG. 1.

SMILES	Kd [2] [nM]	minimal effective concentration [1] [µM]
CCOC(=O)c1c(CSC(=N)N)n(C)c2ccc3ccccc3c12 [SYY-C062]	< 1000	10 to 100
CCOC(=O)c1c(CNC(=N)N)n(C)c2cc(C3=CCCc4ccccc43)ccc12 [SYY-C068]	1000 to 10000	100 to 250
CCOC(=O)c1c(CNC(=N)N)n(C)c2ccc(-c3cccc4ccccc34)cc12 [SYY-C070]	< 1000	10 to 100
CCOC(=O)c1c(CNC(=N)N)n(C)c2cc(-c3cccc4cnccc34)ccc12 [SYY-C074]	10000 to 100000	10 to 100
CCOC(=O)c1c(CNC(=N)N)n(C)c2cc(-c3cccc4ccncc34)ccc12 [SYY-C077]	< 1000	10 to 100
CCOC(=O)c1c(CNC(=N)N)n(C)c2cc(-c3c4ccccc4cc4ccccc34)ccc12 [SYY-C078]	< 1000	10 to 100
CCOC(=O)c1c(CNC(=N)N)n(C(C)C)c2cc(-c3cccc4ccccc34)ccc12 [SYY-C079]	< 1000	10 to 100
CCOC(=O)c1c(CNC(=N)N)n(C)c2cc(-c3cc(C)cc4ccccc34)ccc12 [SYY-C085]	< 1000	10 to 100
CCOC(=O)c1c(CNC(=N)N)n(C)c2cc(C3=CCOc4ccccc43)ccc12 [SYY-C086]	< 1000	10 to 100
CCOC(=O)c1c(CNC(=N)N)n(C)c2cc(-c3cc(Cl)cc4ccccc34)ccc12 [SYY-C090]	1000 to 10000	100 to 250
CCOC(=O)c1c(CNC(=N)N)n(C)c2cc(-c3cccc4cccc(C)c34)ccc12 [SYY-C091]	< 1000	10 to 100
CCOC(=O)c1c(CNC(=N)N)n(C)c2cc(-c3cc(F)cc4ccccc34)ccc12 [SYY-C092]	10000 to 100000	100 to 250
CCOC(=O)c1c(CNC(=N)N)n(C)c2cc(-c3cccc4cccc(F)c34)ccc12 [SYY-C096]	< 1000	10 to 100
CCOC(=O)c1c(CNC(=N)N)n(C)c2cc(-c3cccc4ccc(F)cc34)ccc12 [SYY-C097]	10000 to 100000	10 to 100
CCOC(=O)c1c(CNC(=N)N)n(C)c2cc(-c3cccc4cc(F)ccc34)ccc12 [SYY-C098]	< 1000	10 to 100
CCOC(=O)c1c(CNC(=N)N)sc2ccc(-c3cccc4ccccc34)cc12 [SYY-C107]	< 1000	10 to 100
CCOC(=O)c1c(CNC(=N)N)sc2cc(-c3cccc4ccccc34)ccc12 [SYY-C108]	10000 to 100000	100 to 250
CCOC(=O)c1c(CNC(=N)N)n(C)c2cc(-c3cccc4ccccc34)c(Br)cc12 [SYY-C109]	< 1000	10 to 100
CCOC(=O)c1c(CNC(=N)N)n(C)c2cc(-c3cccc4ccccc34)c(OC3CCCC3)cc12 [SYY-C110]	< 1000	10 to 100
CCOC(=O)c1c(CNC(=N)N)n(C)c2cc(OC)c(-c3cccc4ccccc34)cc12 [SYY-C114]	10000 to 100000	10 to 100
CCOC(=O)c1c(CNC(=N)N)n(C)c2cc(OC3CCCC3)c(-c3cccc4ccccc34)cc12 [SYY-C115]	< 1000	10 to 100
CCOC(=O)c1c(CNC(=N)N)n(C)c2cc(Br)c(-c3cccc4ccccc34)cc12 [SYY-C119]	< 1000	10 to 100

The next lines start with results.

Kd [2] [nM]	SMILES	minimal effective concentration [1] [µM]
< 1000	CCOC(=O)c1c(CSC(=N)N)n(C)c2cc(C3CC4CCC3C4)ccc12 (centres unmarked) [SYY-C063]	10 to 100
10000 to 100000	CCOC(=O)c1c(CNC(=N)N)n(C)c2ccc(-c3ccc4ccccc4c3)cc12 [SYY-C065]	10 to 100
< 1000	CCOC(=O)c1c(CNC(=N)N)n(C)c2cc(-c3ccnc4ccccc34)ccc12 [SYY-C066]	10 to 100
< 1000	CCOC(=O)c1c(CNC(=N)N)n(C)c2cc(-c3cccc4ncccc34)ccc12 [SYY-C067]	10 to 100
< 1000	CCOC(=O)c1c(CNC(=N)N)n(C)c2ccc(C3=CCCc4ccccc43)cc12 [SYY-C071]	10 to 100
1000 to 10000	CCOC(=O)c1c(CNC(=N)N)n(C)c2cc(-c3ccc(C)c4ccccc34)ccc12 [SYY-C072]	10 to 100
< 1000	CCOC(=O)c1c(CNC(=N)N)n(C)c2cc(-c3cncc4ccccc34)ccc12 [SYY-C073]	10 to 100
< 1000	CCOC(=O)c1c(CNC(=N)N)n(C)c2cc(-c3cccc4cccnc34)ccc12 [SYY-C075]	10 to 100
1000 to 10000	CCOC(=O)c1c(CNC(=N)N)n(C)c2cc(-c3ccc(F)c4ccccc34)ccc12 [SYY-C076]	100 to 250
< 1000	CCOC(=O)c1c(CNC(=N)N)n(C)c2cc(-c3cccc4cc(C)ccc34)ccc12 [SYY-C080]	10 to 100
< 1000	CCOC(=O)c1c(CNC(=N)N)n(C)c2cc(-c3cccc4c(C)cccc34)ccc12 [SYY-C081]	10 to 100
< 1000	CCOC(=O)c1c(CNC(=N)N)n(-c2ccccc2)c2cc(-c3cccc4ccccc34)ccc12 [SYY-C082]	10 to 100
1000 to 10000	CCOC(=O)c1c(CNC(=N)N)n(C)c2cc(-c3ccc(Cl)c4ccccc34)ccc12 [SYY-C083]	100 to 250
< 1000	CCOC(=O)c1c(CNC(=N)N)n(C)c2cc(-c3cccc4c(Cl)cccc34)ccc12 [SYY-C084]	10 to 100
10000 to 100000	CCOC(=O)c1c(CNC(=N)N)n(C)c2cc(-c3cccc4ccc(C)cc34)ccc12 [SYY-C087]	100 to 250
10000 to 100000	CCOC(=O)c1c(CNC(=N)N)n(C)c2cc(-c3c4c(cc5c3CCCC5)CCCC4)ccc12 [SYY-C088]	100 to 250
< 1000	CCOC(=O)c1c(CNC(=N)N)n(C)c2cc(-c3cccc4c(F)cccc34)ccc12 [SYY-C089]	10 to 100

Kd [2] [nM]	SMILES	minimal effective concentration [1] [µM]
< 1000	CCOC(=O)c1c(CNC(=N)N)n(C)c2cc(-c3cccc4cc(Cl)ccc34)ccc12 [SYY-C093]	10 to 100
10000 to 100000	CCOC(=O)c1c(CNC(=N)N)n(C)c2cc(-c3cccc4cccc(Cl)c34)ccc12 [SYY-C095]	10 to 100
< 1000	CNC(=O)c1c(CNC(=N)N)n(C)c2cc(-c3cccc4ccccc34)ccc12 [SYY-C099]	10 to 100
1000 to 10000	CN(C)C(=O)c1c(CNC(=N)N)n(C)c2cc(-c3cccc4ccccc34)ccc12 [SYY-C100]	100 to 250
< 1000	Cn1c(CNC(=N)N)c(C(N)=O)c2ccc(-c3cccc4ccccc34)cc21 [SYY-C101]	10 to 100
< 1000	Cn1c(CNC(=N)N)c(C#N)c2ccc(-c3cccc4ccccc34)cc21 [SYY-C102]	10 to 100
1000 to 10000	CCOC(=O)c1c(CNC(=N)N)n(C)c2cc(-c3cccc4ccccc34)c(OC)cc12 [SYY-C103]	100 to 250
< 1000	CCOC(=O)c1c(CNC(=N)N)n(C)c2cc(-c3cccc4ccccc34)c(Cl)cc12 [SYY-C104]	10 to 100
< 1000	CC(=O)Nc1c(CNC(=N)N)n(C)c2cc(-c3cccc4ccccc34)ccc12 [SYY-C105]	10 to 100
1000 to 10000	CCOC(=O)c1c(CNC(=N)N)oc2cc(-c3cccc4ccccc34)ccc12 [SYY-C106]	100 to 250
1000 to 10000	CCOC(=O)c1c(CNC(=N)N)n(C)c2cc(-c3cccc4ccccc34)c(C3=CCCC3)cc12 [SYY-C111]	100 to 250
< 1000	CCOC(=O)c1c(CNC(=N)N)n(C)c2cc(-c3cccc4ccccc34)c(C3CC3)cc12 [SYY-C112]	10 to 100
< 1000	CCOC(=O)c1c(CNC(=N)N)n(C)c2cc(-c3cccc4ccccc34)c(C3CCCC3)cc12 [SYY-C113]	10 to 100
< 1000	CCOC(=O)c1c(CNC(=N)N)n(C)c2cc(C3=CCCC3)c(-c3cccc4ccccc34)cc12 [SYY-C116]	10 to 100
10000 to 100000	CCOC(=O)c1c(CNC(=N)N)n(C)c2cc(C3CCCC3)c(-c3cccc4ccccc34)cc12 [SYY-C117]	100 to 250
< 1000	CCOC(=O)c1c(CNC(=N)N)n(C)c2cc(Cl)c(-c3cccc4ccccc34)cc12 [SYY-C118]	10 to 100
